Key:
[1] = tested on: tomato (Solanum lycopersicum) cv Moneymaker; experiment: Growth assay of tomato seedlings from seeds primed with IR-PRN; type: in vivo
Method: Seeds of tomato (Solanum lycopersicum) cv Moneymaker were primed with a priming solution containing 25% PEG without (control) or with IR-PRN.
The seeds were sown in randomly placed small tagged pots containing potting mixture, in a glasshouse at a night and day temperature of 15-18° C. and 22-27° C., respectively. Plant height, weight and dry weight were measured when the plant reached 3-5 true leaves. Typically the seedlings were 4-5 weeks old.

R. solani = experiment: Assay for R. solani resistance (damping-off disease) of tomato plants; type: in vivo; settings: control plants wilted within 2 weeks
Method: Roots of tomato (Solanum lycopersicum) seedlings were immersed in a water solution of IL-60-BS and IR-PRN or IR-PRN-GFP (1 μg/plantlet) until the entire solution was sucked up by the plants. The plants were then potted and kept in the greenhouse at 24° C. Tomato seedlings, 2 weeks after application of IL-60-BS and IR-PRN, were transferred to pots with 0.5 kg of soil mixed with 0.5 g of R. solani mycelium. Control plants (not carrying PRN) were similarly treated. Plants were kept for 2 to 3 weeks at 24° C. until symptom appearance.

Rhizoctonia solani = experiment: Bioassay for inhibition of Rhizoctonia solani in vitro; type: cell-based; settings: plant-extracted, HPLC-purified PRN; 28° C., 3 days
Method: R. solani was cultured on potato dextrose agar at 28° C. A disk (30 mm in diameter) of R. solani-containing agar was transferred to another Petri dish containing potato dextrose agar and 10 μl of HPLC elution buffer (negative control), 10 μl of various plant extracts, or 10 μl containing 0.2 mg of synthetic PRN in elution buffer (Sigma, positive control). Inhibition of fungal growth was determined after incubation at 28° C. for 3 days.

[2] = plant expressing PRN, seedlings at 3-5 true leaves, 4-5 weeks old

O=[N+]([O-])c1c(Cl)cccc1-c1c[nH]cc1Cl [PRN, 3-chloro-4-(2′-nitro-3′-chlorophenyl)-pyrrole]
Dry weight [1, 2]: 3.6 gr | Dry weight (% of fresh weight) [1, 2]: 42.7 % of fresh weight | Fresh weight [1, 2]: 9.2 gr | Height [1, 2]: 11 cm | Growth Enhancement (%), Dry weight ([1]; relative to control plant): 276.9% | Growth Enhancement (%), Dry weight (% of fresh weight) ([1]; relative to control plant): 159.9% | Growth Enhancement (%), Fresh weight ([1]; relative to control plant): 191.7% | Growth Enhancement (%), Height ([1]; relative to control plant): 134.1% | State of plants in R. solani-infested soil (R. solani): remained healthy | Inhibition of growth of R. solani (Rhizoctonia solani): inhibitory
